For this experiment, the target named is T1, RANTES/MIP-1α chemokine receptor (CCR1) in THP-1 cell membranes (Homo sapiens, UniProt P32246).
T1 construct: Membranes were prepared from THP-1 cells (ATCC #TIB202); host or cells: THP-1 cells (membrane preparation)
T1 sequence (P32246 1-355): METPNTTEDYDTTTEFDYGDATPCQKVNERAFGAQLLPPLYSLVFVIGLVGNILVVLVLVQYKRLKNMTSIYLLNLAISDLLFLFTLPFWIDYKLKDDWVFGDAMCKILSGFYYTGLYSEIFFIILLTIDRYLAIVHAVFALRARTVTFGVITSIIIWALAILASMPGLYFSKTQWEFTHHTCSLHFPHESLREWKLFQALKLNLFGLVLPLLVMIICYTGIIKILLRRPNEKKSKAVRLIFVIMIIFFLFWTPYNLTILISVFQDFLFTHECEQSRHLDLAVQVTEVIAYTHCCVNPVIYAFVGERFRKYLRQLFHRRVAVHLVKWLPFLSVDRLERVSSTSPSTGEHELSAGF
Description: Receptor binding assay: 125I-RANTES or 125I-MIP-1α binding to THP-1 cell membranes. Particulars: inhibitor concentration required for 50% inhibition of specific binding; 125I-RANTES or 125I-MIP-1α as ligand, THP-1 cell membranes; read-out: IC50.
The term IC50 denotes the concentration that inhibits the measured activity by half. For `COC(=O)C1CN(CCC=C2c3cc(C(C)(C)O)ccc3OCc3ncccc32)CCN1c1ccc(Cl)cc1` (stereo not drawn) [Example 546, 1-(4-Chloro-phenyl)-4-{3-[7-(1-hydroxy-1-methyl-ethyl)-11H-10-oxa-1-aza-dibenzo[a,d]cyclohepten-5-ylidene]-propyl}-piperazine-2-carboxylic acid methyl ester], the IC50 is less than 1 µM.
Consider “4-(4-Chlorophenyl)-1-[3-(7-dimethylaminocarbonyl-5,11-dihydro[1]benzoxepino[2,3-b]pyridin-5-ylidene)propyl]piperidin-4-ol [Example 198]”, for which the IC50 was less than 1 µM.
Take `CCN(CCc1ccc(Cl)cc1)[C@@H]1CCN(CCC=C2c3cc(C(C)(C)O)ccc3OCc3ncccc32)C1` [Example 528]: the IC50 was less than 10 µM.
For “4-(5-Chloropyridin-2-yl)-1-[3-(5,11-dihydro-7-methoxy[1]benzoxepino[2,3-b]pyridin-5-ylidene)propyl]piperidin-4-ol [Example 83]”, the IC50 is less than 1000 µM.
Take `CC(C)(Oc1ccc2c(c1)C(=CCC[N+]1(C)CCC(O)(c3ccc(Cl)cc3)CC1)c1cccnc1CO2)C(N)=O` (stereo not drawn) [Example 262, 1-[3-(7-(1-Carbamoyl-1-methyl)ethyloxy-5,11-dihydro[1]benzoxepino[2,3-b]pyridin-5-ylidene)propyl]-4-(4-chlorophenyl)-4-hydroxy-1-methylpiperidinium iodide]: the IC50 was less than 1 µM.
Turning to “4-(7-Chloro-1,2-benzisoxazol-3-yl)-1-[3-(5,11-dihydro-7-methoxy[1]benzoxepino[2,3-b]pyridin-5-ylidene)propyl]piperidine [Example 185]”, the IC50 was less than 1000 µM.
For the compound “4-(4-Chlorophenyl)-1-[3-(5,11-dihydro-7-(1-propoxy)carbonyl-[1]benzoxepino[2,3-b]pyridin-5-ylidene) propyl]piperidine-4-ol [Example 426]”, the IC50 was less than 1 µM.
In the case of “4-(4-Chlorophenyl)-1-[3-(5,11-dihydro-9-methoxy[1]benzoxepino[2,3-b]pyridin-5-ylidene)propyl]piperidin-4-ol [Example 166]”, the IC50 is less than 10 µM.
Consider `CCC(=O)N(Cc1ccc(Cl)cc1)C1CCN(CCC=C2c3cc(C(C)(C)O)ccc3OCc3ncccc32)C1` (stereo not drawn) [Example 563, N-(4-Chloro-benzyl)-N-(1-{3-[7-(1-hydroxy-1-methyl-ethyl)-11H-10-oxa-1-aza-dibenzo[a,d]cyclohepten-5-ylidene]-propyl}-pyrrolidin-3-yl)-propionamide], for which the IC50 is less than 10 µM.
Consider `CCN(c1ccc(Cl)cc1)C1CCN(CCC=C2c3cc(C(C)(C)O)ccc3OCc3ncccc32)CC1` [Example 493, 2-[5-(3-{4-[(4-Chloro-phenyl)-ethyl-amino]-piperidin-1-yl}-propylidene)-5,11-dihydro-10-oxa-1-aza-dibenzo[a,d]cyclohepten-7-yl]-propan-2-ol], for which the IC50 was less than 10 µM.
`Cc1cc(Cl)ccc1C1(O)CCN(CCC=C2c3cc(C(C)(C)O)ccc3OCc3ncccc32)CC1` [Example 490, 4-(4-Chloro-2-methyl-phenyl)-1-{3-[7-(1-hydroxy-1-methyl-ethyl)-11H-10-oxa-1-aza-dibenzo[a,d]cyclohepten-5-ylidene]-propyl}-piperidin-4-ol]: the IC50 is less than 1 µM.
Regarding “1-[3-(8-Bromo-5,11-dihydro[1]benzoxepino[2,3-b]pyridin-5-ylidene)propyl]-4-(4-chlorophenyl)piperidine [Example 160]”, the IC50 was less than 1 µM.
Next, “4-(4-Chlorophenyl)-1-[3-(7-cyclopropylmethyloxy-5,11-dihydro [1]benzoxepino[2,3-b]pyridin-5-ylidene)propyl]piperidin-4-ol [Example 130]”: less than 1 µM.
In the case of `COc1ccc2c(c1)C(=CCCN1CCOC(c3ccc(Cl)cc3)OCC1)c1cccnc1CO2` [Example 249, 5-(4-Chlorophenyl)-1-[3-(5,11-dihydro-7-methoxy[1]benzoxepino[2,3-b]pyridin-5-ylidene)propyl]-4,6-dioxazacane], the IC50 was less than 1 µM.
Consider “1-[3-(7-(1-Carboxy-1-methylethyl)oxy-5,11-dihydro [1]benzoxepino[2,3-b]pyridin-5-ylidene)propyl]-4-(4-chlorophenyl)piperidin-4-ol [Example 139]”, for which the IC50 is less than 1 µM.

The values are drawn from patent US8653096B2, “Chemokine receptor antagonists and methods of use thereof” (Millennium Pharmaceuticals, Inc., priority 2001, dated 2014).
